In article PMC6391272, “Rex in Caldicellulosiruptor bescii: Novel regulon members and its effect on the production of ethanol and overflow metabolites” (MicrobiologyOpen, 2018):

Target: T1, Rex (recombinant Rex, rRex) (Caldicellulosiruptor bescii, UniProt B9MPL7)
T1 construct: E. coli T7 Express; purified with IMPACT kit protocol
T1 sequence (B9MPL7 1-217): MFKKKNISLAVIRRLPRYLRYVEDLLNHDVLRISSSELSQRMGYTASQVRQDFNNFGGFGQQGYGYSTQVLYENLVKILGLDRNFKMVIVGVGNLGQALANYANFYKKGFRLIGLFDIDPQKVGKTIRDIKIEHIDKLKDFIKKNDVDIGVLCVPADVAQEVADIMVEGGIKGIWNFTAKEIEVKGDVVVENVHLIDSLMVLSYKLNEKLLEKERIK
Experiment: electromobility shift assay (biotin-labelled […] bp operator dsDNA)
Settings: room temperature, 30 min; loss of operator DNA binding; NADH/NAD+ cofactor pool 1-100 umol/L

NC(=O)C1=CN([C@@H]2O[C@H](COP(=O)(O)OP(=O)(O)OC[C@H]3O[C@@H](n4cnc5c(N)ncnc54)[C@H](O)[C@@H]3O)[C@@H](O)[C@H]2O)C=CC1 [NADH]
electromobility shift assay (biotin-labelled 50 bp operator dsDNA): DNA binding by Rex is disrupted by NADH and is sensitive to NADH/NAD ^+ ratio
